These results are taken from ChEMBL document CHEMBL1128870, “Synthesis and anti-HIV activities of 2-deoxy-2,2-difluoro--L-ribofuranosyl-pyrimidine and -purine nucleosides” (Bioorg Med Chem Lett, 1995).

Assay [1] is described as follows: In vitro anti-HIV activity against HIV-1 in human peripheral blood mononuclear (PBM) cells. The assay is classed as functional.
Assay [2] can be described thus: Cytotoxic activity against HIV-1 in peripheral blood mononuclear (PBM) cells. The assay is classed as functional. The conditions noted are these: Homo sapiens.
The test system of assay [3] is Vero. Description: Cytotoxic activity against HIV-1 in rapidly dividing vero cells. The assay is classed as functional, cell-based. The conditions noted are these: Chlorocebus sabaeus.

In general, EC50 refers to the midpoint of the concentration-response curve. One may read the IC50 as the concentration that inhibits the measured activity by half. Low readings indicate higher potency, high ones lower potency. The molecule `Cc1cn([C@H]2O[C@@H](CO)C(O[Si](C)(C)C(C)(C)C)C2(F)F)c(=O)[nH]c1=O` (single isomer, unassigned) displayed an EC50 in assay [1] of over 100 µM. In addition, the IC50 in assay [2] and in assay [3] was over 100 µM each time.

In assay [1], `Cc1cn([C@H]2C[C@H](N=[N+]=[N-])[C@@H](CO)O2)c(=O)[nH]c1=O` [ZIDOVUDINE] registered an EC50 of 0.004 µM. In addition, in assay [2], the IC50 is over 100 µM.

`Nc1ncnc2c1ncn2[C@H]1O[C@@H](CO)C(O)C1(F)F` (single isomer, unassigned) gave a concentration for a half-maximal effect (EC50) in assay [1] of 3.4 µM. Moreover, the IC50 in assay [2] and in assay [3] was over 100 µM throughout.

Molecule `CC(C)(C)[Si](C)(C)OC1[C@H](CO)O[C@@H](n2ccc(N)nc2=O)C1(F)F` (single isomer, unassigned) yielded an EC50 in assay [1] of over 100 µM. Further, the IC50 in assay [2] and in assay [3] was over 100 µM each time.

`CC(C)(C)[Si](C)(C)OC1[C@H](CO)O[C@H](n2ccc(N)nc2=O)C1(F)F` (single isomer, unassigned) yielded an EC50 in assay [1] of over 100 µM. Moreover, the IC50 in assay [2] and in assay [3] was over 100 µM throughout.

Turning to `Cc1cn([C@@H]2O[C@@H](CO)C(O[Si](C)(C)C(C)(C)C)C2(F)F)c(=O)[nH]c1=O` (single isomer, unassigned), in assay [1], the EC50 is over 100 µM. Further, the IC50 in assay [2] and in assay [3] was over 100 µM in each case.

As to `Nc1ncnc2c1ncn2[C@@H]1O[C@@H](CO)C(O)C1(F)F` (single isomer, unassigned), in assay [1], the EC50 is over 100 µM. Also, the IC50 in assay [2] and in assay [3] was over 100 µM in each case.
